Assay results from US10022395B2 (UNIWERSYTET LÓDZKI, priority 2012, dated 2018).
“And” between values parts separate entries of the source, which are not always exact repeats. Equal values may be shown once.

Columns and labels:
[1] = tested on: CLL cells (MEC-1); assay: Annexin-V / propidium iodide apoptosis test with 25%, 30%, 40%, 45% maltotriose dendrimers and FA; format: cell-based, human; conditions: 1.6 μM
[2] = tested on: CLL cells (leukemic lymphocytes, MNCs); assay: Mitochondrial membrane potential (CMXRos / anti-glycophorin A-FITC, flow cytometry); format: cell-based, human; conditions: for mean percentage of cells with lower mitochondrial potential (ΔΨm^low/Gly-A^−): 1.6 μM
Text: Mitochondrial membrane potential is an early indicator of apoptosis. CMXRos, i.e. Chloromethyl-X-rosamine (the reagent's name by Mito Tracker Red CMXRos, Molecular Probes, USA), and a monoclonal antibody to glycophorin A conjugated with FITC (the reagent's name of Anti-Glycophorin A FITC by Dako, Denmark) were used for its assessment. CMXRos is a lipophilic cationic dye that accumulates in the mitochondrial matrix of viable cells when there is an electronegative load on the inner surface of the mitochondrial membrane. This asymmetric location of protons along the inner mitochondrial membrane leads to a high mitochondrial membrane potential (ΔΨm) in living cells. A decreased ΔΨm is one of the first symptoms of apoptosis, and in effect lowering of the mitochondrial uptake of CMXRos.
The stock CMXRos solution was prepared by dilution of the substance supplied by the manufacturer in 94 μl. DMSO (dimethylsulphoxide), and stored at […]. Then working solution was prepared also using DMSO (1:10) and stored at 4° C. Mononuclear cells, i.e. leukemic lymphocytes, at 1×10^6 MNCs/ml concentration, were incubated with CMXRos (2.5 μl working solution in 500 μl RPMI 1640 medium) at 37° C. for 30 minutes. […] The samples were next measured using flow cytometry. The percentage of cells not bound to anti-glycophorin A-FITC (ΔΨm^low/GIy-A^− cells), with low mitochondrial potential, was calculated.
All fluorescence measurements were performed by a flow cytometer FACSCalibur (Becton Dickinson, USA) equipped with an argon laser 488nm and computer program CeliQuestPro (Becton Dickinson, USA). Each time 10 000cells were evaluated. The fluorescence was measured using standard emission filters: green—FL1 (wavelength λ=530±20 nm) and red—FL3 (λ>600 nm).

Compound	Ann+ IP+ (late apoptosis), mean percentage of cells ([1]; 24 h)	Ann+ IP− (early apoptosis), mean percentage of cells ([1]; 24 h)	CAI (compensating apoptotic index) ([1]; 24 h)	Ann− IP+ (necrosis), mean percentage of cells ([1]; 48 h)	CAI (compensating apoptotic index) ([1]; 48 h)	mean percentage of cells with lower mitochondrial potential (ΔΨm^low/Gly-A^−) ([2]; 24 h)	mean percentage of cells with lower mitochondrial potential (ΔΨm^low/Gly-A^−) ([2]; 48 h)	apoptosis-inducing action (mitochondrial potential) ([2]; 10 μg/ml)
Nc1nc(F)nc2c1ncn2[C@@H]1O[C@H](CO)[C@@H](O)[C@@H]1O [FA, fludarabine]	6.51% and 10.83% and 6.50%	3.82% and 3.98% and 3.77%	1.87% and 7.35% and 4.40%	22.82% and 15.00% and 20.27%	6.98% and 7.80% and 12.83%	52.05%	74.49%	–
rituximab	–	–	–	–	–	–	–	apoptosis-inducing action in order of spontaneous apoptosis
